{"source": "patent US20180318238A1", "about": "“METHODS FOR REDUCING SEQUELAE OF INTRA-DIALYTIC HYPOTENSION” (priority 2015, published 2018)", "origin": "cited, not measured here", "settings": "intravenous, dogs, all doses used; from WO 98/13036"}
{"substance": "S-ethylisothiouronium diethylphosphate", "values": [{"measurement": "Effect on arterial blood pressure", "result": "pronounced hypertensive effect at all doses used"}]}
